# Assay results taken from patent US20140005163A1 (NOVARTIS AG, priority 2010, published 2014).
# pIC50: −log10 of the molar value.
# Columns and labels:
# [1] = system: PKB Ser473 phosphorylation in Rat1-myr-HA-p110 alpha cells; assay: Reverse protein array assay, PKB Ser473 phosphorylation in Rat1-myr-p110 alpha cells; type: cell-based; conditions: 0.5 h, pAkt Ser473, 30 minutes compound incubation, read-out: p-PKB IC50
# How it was run: (§1)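 Cells: Rat1-myr-HA-p110 alpha/beta/delta, seeded ≥20 h. Lysis on ice 10 min; reverse-phase protein array, 4 lysate dilutions; fluorescence read, relative intensity.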
# [2] = molecular target: T1, PI3K beta (Homo sapiens, UniProt P42338); assay: PI3K beta kinase assay (Kinase-Glo luminescence); type: biochemical
# T1 construct: for the full-length p110-b subunit are generated and fused by overlapping PCR; p85(iSH2) fusion partner (see partner chain) (N); His tag (C); made in house; host or cells: baculovirus; Tn5 (Trichoplusia ni) or TiniPro insect cells
# How it was run: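 Full-length p110β with a Gly-linked p85 iSH2 and a C-terminal His tag (BV949, 25 nM) was incubated with 10 μg/mL phosphatidylinositol and 1 μM ATP in 10 mM Tris pH 7.5, 3 mM MgCl2, 50 mM NaCl, 0.05% CHAPS, 1 mM DTT for 60 min at room temperature. Residual ATP was read by Kinase-Glo luminescence.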
# [3] = system: PKB Ser473 phosphorylation in Rat1-myr-HA-p110 beta cells; assay: Reverse protein array assay, PKB Ser473 phosphorylation in Rat1-myr-p110 beta cells; type: cell-based; conditions: 0.5 h, pAkt Ser473, 30 minutes incubation, read-out: p-PKB IC50
# How it was run: as §1
# [4] = system: S6 Ribosomal Protein phosphorylation Ser235/236 in TSC1 null mouse embryo fibroblast (MEF) cells; assay: Reverse protein array assay, S6 Ribosomal Protein phosphorylation Ser235/236 in TSC1 null MEF cells; type: cell-based; conditions: 1 h, pS6 ribosomal protein Ser235/236, 60 minutes incubation, read-out: p-S6 IC50
# How it was run: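 TSC1−/− MEFs, seeded and held ≥20 h at 37 °C/5% CO2, were exposed to 8-step serial compound dilutions (0.02% DMSO final; DMSO vehicle control) for 60 min at 37 °C. Cells were then lysed on ice for 10 min and lysates spotted onto reverse protein array chips.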
# T1 sequence (P42338 with tags, fused parts or gaps limits assumed): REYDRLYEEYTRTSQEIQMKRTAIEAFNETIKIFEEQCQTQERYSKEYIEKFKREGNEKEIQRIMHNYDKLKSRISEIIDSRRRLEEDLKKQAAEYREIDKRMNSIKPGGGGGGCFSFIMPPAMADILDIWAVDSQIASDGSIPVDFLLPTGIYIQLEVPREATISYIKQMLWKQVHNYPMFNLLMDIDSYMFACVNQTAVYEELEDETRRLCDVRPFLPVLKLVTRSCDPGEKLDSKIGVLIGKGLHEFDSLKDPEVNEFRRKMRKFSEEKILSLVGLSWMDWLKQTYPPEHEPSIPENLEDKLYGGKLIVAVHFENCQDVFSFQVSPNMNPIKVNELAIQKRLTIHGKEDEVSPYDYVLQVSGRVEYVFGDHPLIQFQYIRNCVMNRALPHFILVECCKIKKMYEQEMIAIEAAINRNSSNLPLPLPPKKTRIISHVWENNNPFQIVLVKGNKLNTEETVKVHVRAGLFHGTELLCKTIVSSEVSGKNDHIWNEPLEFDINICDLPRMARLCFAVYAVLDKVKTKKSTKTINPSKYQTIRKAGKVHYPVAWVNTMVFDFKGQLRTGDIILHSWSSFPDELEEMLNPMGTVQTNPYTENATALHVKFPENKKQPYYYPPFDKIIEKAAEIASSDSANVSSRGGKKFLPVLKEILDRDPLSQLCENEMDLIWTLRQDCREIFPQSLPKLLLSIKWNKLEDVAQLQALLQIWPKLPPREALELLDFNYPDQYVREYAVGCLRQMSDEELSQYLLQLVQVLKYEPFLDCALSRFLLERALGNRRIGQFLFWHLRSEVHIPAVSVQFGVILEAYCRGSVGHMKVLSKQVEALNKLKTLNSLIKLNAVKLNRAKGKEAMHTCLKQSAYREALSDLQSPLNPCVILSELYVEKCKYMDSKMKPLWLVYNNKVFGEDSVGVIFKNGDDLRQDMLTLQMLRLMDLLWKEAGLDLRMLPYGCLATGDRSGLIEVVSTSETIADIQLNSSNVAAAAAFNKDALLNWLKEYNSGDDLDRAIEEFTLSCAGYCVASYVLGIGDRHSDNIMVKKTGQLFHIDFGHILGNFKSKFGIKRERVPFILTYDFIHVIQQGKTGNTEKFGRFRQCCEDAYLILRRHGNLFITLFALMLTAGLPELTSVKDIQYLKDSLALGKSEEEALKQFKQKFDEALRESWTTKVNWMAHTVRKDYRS
pIC50 [1],pIC50 [2],pIC50 [3],SMILES,pIC50 [4]
8.22,7.55,7.43,"CCOc1cc(-c2ccc3ncc4c(c3c2)n(-c2cn(C)nc2C)c(=O)n4C)cnc1CC [Example 187, 1-(1,3-Dimethyl-1H-pyrazol-4-yl)-8-(5-ethoxy-6-ethyl-pyridin-3-yl)-3-methyl-1,3-dihydro-imidazo[4,5-c]quinolin-2-one]",8.72
7.96,7.42,6.65,"CCNc1ncc(-c2ccc3ncc4c(c3c2)n(-c2cn(C)nc2C)c(=O)n4C)cc1COC [Example 206.1, 1-(1,3-Dimethyl-1H-pyrazol-4-yl)-8-(6-ethylamino-5-methoxymethyl-pyridin-3-yl)-3-methyl-1,3-dihydro-imidazo[4,5-c]quinolin-2-one]",8.52
> 8.30,6.39,7.89,"CCN(C)c1ccc(-c2ccc3ncc4c(c3c2)n(-c2cn(C)nc2C)c(=O)n4C)cn1 [Example 98.1, 1-(1,3-Dimethyl-1H-pyrazol-4-yl)-8-[6-(ethyl-methyl-amino)-pyridin-3-yl]-3-methyl-1,3-dihydro-imidazo[4,5-c]quinolin-2-one]",8.52
7.85,7.64,7.70,"Cc1nn(C)cc1-n1c(=O)n(C)c2cnc3ccc(-c4cncc(C5(C#N)CCC5)c4)cc3c21 [Example 221.1, 1-{5-[1-(1,3-Dimethyl-1H-pyrazol-4-yl)-3-methyl-2-oxo-2,3-dihydro-1H-imidazo[4,5-c]quinolin-8-yl]-pyridin-3-yl}-cyclobutanecarbonitrile]",9.00
8.15,6.74,8.22,"CNc1cc(-c2ccc3ncc4c(c3c2)n(-c2cn(C(C)C)nc2C)c(=O)n4C)cnc1CO [Example 158.2, 8-(6-Hydroxymethyl-5-methylamino-pyridin-3-yl)-1-(1-isopropyl-3-methyl-1H-pyrazol-4-yl)-3-methyl-1,3-dihydro-imidazo[4,5-c]quinolin-2-one]",9.00
7.92,7.72,7.21,"COCCOc1cncc(-c2ccc3ncc4c(c3c2)n(-c2cn(C)nc2Cl)c(=O)n4C)c1 [Example 59.2, 1-(3-Chloro-1-methyl-1H-pyrazol-4-yl)-8-[5-(2-methoxy-ethoxy)-pyridin-3-yl]-3-methyl-1,3-dihydro-imidazo[4,5-c]quinolin-2-one]",9.00
7.80,6.83,7.54,"Cc1nn(C)cc1-n1c(=O)n(C)c2cnc3ccc(-c4cncc(N(C)C(C)C)c4)cc3c21 [Example 173, 1-(1,3-Dimethyl-1H-pyrazol-4-yl)-8-[5-(isopropyl-methyl-amino)-pyridin-3-yl]-3-methyl-1,3-dihydro-imidazo[4,5-c]quinolin-2-one]",8.70
6.74,8.00,6.45,"Cc1ncc(-c2ccc3ncc4c(c3c2)n(-c2cn(C)nc2C)c(=O)n4C)cc1NS(C)(=O)=O [Example 76, N-{5-[1-(1,3-Dimethyl-1H-pyrazol-4-yl)-3-methyl-2-oxo-2,3-dihydro-1H-imidazo[4,5-c]quinolin-8-yl]-2-methyl-pyridin-3-yl}-methanesulfonamide]",6.70
7.59,7.54,7.44,"CCn1cc(-n2c(=O)n(C)c3cnc4ccc(-c5cncc(N)c5)cc4c32)c(C)n1 [Example 45.2, 8-(5-Amino-pyridin-3-yl)-1-(1-ethyl-3-methyl-1H-pyrazol-4-yl)-3-methyl-1,3-dihydro-imidazo[4,5-c]quinolin-2-one]",7.14
6.90,–,6.47,"CO[C@@H]1CCN(c2ccc(-c3ccc4ncc5c(c4c3)n(-c3cn(C)nc3C)c(=O)n5C)cn2)C1 [Example 213.1, 1-(1,3-Dimethyl-1H-pyrazol-4-yl)-8-[6-((R)-3-methoxy-pyrrolidin-1-yl)-pyridin-3-yl]-3-methyl-1,3-dihydro-imidazo[4,5-c]quinolin-2-one]",7.31
8.00,–,7.72,"CCOc1ccc(-c2ccc3ncc4c(c3c2)n(-c2cn(CC(=O)N(C)C)nc2C)c(=O)n4C)cn1 [Example 3.9, 2-{4-[8-(6-Ethoxy-pyridin-3-yl)-3-methyl-2-oxo-2,3-dihydro-imidazo[4,5-c]quinolin-1-yl]-3-methyl-pyrazol-1-yl}-N,N-dimethyl-acetamide]",8.30
7.11,6.79,7.39,"COCc1ccc(-c2ccc3ncc4c(c3c2)n(-c2cn(C(C)C)nc2C)c(=O)n4C)cn1 [Example 105, 1-(1-Isopropyl-3-methyl-1H-pyrazol-4-yl)-8-(6-methoxymethyl-pyridin-3-yl)-3-methyl-1,3-dihydro-imidazo[4,5-c]quinolin-2-one]",–
6.63,6.29,–,"Cc1nn(C)c(C)c1-n1c(=O)n(C)c2cnc3ccc(-c4ccc(CO)nc4)cc3c21 [Example 16.4, 8-(6-Hydroxymethyl-pyridin-3-yl)-3-methyl-1-(1,3,5-trimethyl-1H-pyrazol-4-yl)-1,3-dihydro-imidazo[4,5-c]quinolin-2-one]",–
7.52,6.47,7.14,"Cc1cc(-n2c(=O)n(C)c3cnc4ccc(-c5ccc(N(C)C)nc5)cc4c32)n(C)n1 [Example 4.6, 8-(6-Dimethylamino-pyridin-3-yl)-1-(2,5-dimethyl-2H-pyrazol-3-yl)-3-methyl-1,3-dihydro-imidazo[4,5-c]quinolin-2-one]",–
6.45,6.01,6.28,"CNC(=O)c1ccc(-c2ccc3ncc4c(c3c2)n(-c2c(C)nn(C)c2C)c(=O)n4C)cn1 [Example 15.2, 5-[3-Methyl-2-oxo-1-(1,3,5-trimethyl-1H-pyrazo1-4-yl)-2,3-dihydro-1H-imidazo[4,5-c]quinolin-8-yl]-pyridine-2-carboxylic acid methylamide]",–
7.33,–,7.37,"CCOc1ncc(-c2ccc3ncc4c(c3c2)n(-c2cn(C)nc2C)c(=O)n4C)cc1NC(C)=O [Example 65, N-{5-[1-(1,3-Dimethyl-1H-pyrazol-4-yl)-3-methyl-2-oxo-2,3-dihydro-1H-imidazo[4,5-c]quinolin-8-yl]-2-ethoxy-pyridin-3-yl}-acetamide]",7.18
6.89,–,6.97,"CCOCc1ncc(-c2ccc3ncc4c(c3c2)n(-c2cn(C)nc2C)c(=O)n4C)cc1OC [Example 196.2, 1-(1,3-Dimethyl-1H-pyrazol-4-yl)-8-(6-ethoxymethyl-5-methoxy-pyridin-3-yl)-3-methyl-1,3-dihydro-imidazo[4,5-c]quinolin-2-one]",6.90
7.35,–,7.06,"Cc1nn(CC(=O)N2CCC2)cc1-n1c(=O)n(C)c2cnc3ccc(-c4cnc(N5CCCC5)nc4)cc3c21 [Example 247.2, 1-[1-(2-Azetidin-1-yl-2-oxo-ethyl)-3-methyl-1H-pyrazol-4-yl]-3-methyl-8-(2-pyrrolidin-1-yl-pyrimidin-5-yl)-1,3-dihydro-imidazo[4,5-c]quinolin-2-one]",8.05
6.72,6.02,6.76,"Cn1nccc1-n1c(=O)n(C)c2cnc3ccc(-c4ccc(NCCO)nc4)cc3c21 [Example 21.1, 8-[6-(2-Hydroxy-ethylamino)-pyridin-3-yl]-3-methyl-1-(2-methyl-2H-pyrazol-3-yl)-1,3-dihydro-imidazo[4,5-c]quinolin-2-one]",–
> 8.30,–,> 8.30,"Cc1nn(C)cc1-n1c(=O)n(C)c2cnc3ccc(-c4ccc(-n5cccn5)cc4)cc3c21 [Example 51.1, 1-(1,3-Dimethyl-1H-pyrazol-4-yl)-3-methyl-8-(4-pyrazol-1-yl-phenyl)-1,3-dihydro-imidazo[4,5-c]quinolin-2-one]",8.30
7.66,6.42,6.80,"COc1ccc(-c2ccc3ncc4c(c3c2)n(-c2cc(C)nn2C)c(=O)n4C)cc1OC [Example 1.4, 8-(3,4-Dimethoxy-phenyl)-1-(2,5-dimethyl-2H-pyrazol-3-yl)-3-methyl-1,3-dihydro-imidazo[4,5-c]quinolin-2-one]",–
6.87,–,6.89,"Cc1nn(C)cc1-n1c(=O)n(C)c2cnc3ccc(-c4ccc(OCCCO)nc4)cc3c21 [Example 108, 1-(1,3-Dimethyl-1H-pyrazol-4-yl)-8-[6-(3-hydroxy-propoxy)-pyridin-3-yl]-3-methyl-1,3-dihydro-imidazo[4,5-c]quinolin-2-one]",7.77
6.34,6.78,6.23,"Cc1nn(C)c(C)c1-n1c(=O)n(C)c2cnc3ccc(-c4cnc(N)c(CO)c4)cc3c21 [Example 169.2, 8-(6-Amino-5-hydroxymethyl-pyridin-3-yl)-3-methyl-1-(1,3,5-trimethyl-1H-pyrazol-4-yl)-1,3-dihydro-imidazo[4,5-c]quinolin-2-one]",–
